{
  "source": "patent US20110195924A1",
  "about": "“Methods of Inhibiting the Interaction Between S100P and the Receptor for Advanced Glycation End-Products” (priority 2008, published 2011)",
  "key": {"[1]": {"target": "T1, S100B with RAGE (Homo sapiens, UniProt P04271)", "T1 sequence (P04271 1-92)": "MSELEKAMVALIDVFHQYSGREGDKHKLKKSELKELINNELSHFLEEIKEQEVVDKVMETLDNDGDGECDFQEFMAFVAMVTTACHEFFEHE", "test": "ELISA of S100B binding to RAGE (sRAGE coated plate)", "from_the_text": "After removing un-bound S100B by washing with detergent, bound S100B and RAGE complex was quantified by adding HRP labeled antibody against S100B."}, "[2]": {"tested_on": "Panc-1 cells", "test": "Panc-1 cell proliferation (MTS)", "type": "cell-based", "protocol": "Panc-1 pancreatic adenocarcinoma cells (1.0×10^3 cells/well) were cultured in the presence or absence of S100P (100 nM) and with or without cromolyn (100 μM), and cell proliferation was analyzed at 24, 48, and 72 hours. Means and 95% confidence intervals of three independent experiments performed in triplicate are shown. *, P=0.001, S100P alone versus S100P+cromolyn.\nPanc-1 cells were plated at 1.0×10^3 cells/well and treated with platelet-derived growth factor (10 ng/mL) with or without cromolyn (100 μM), and cell proliferation was analyzed after 48 hours. Means and 95% confidence intervals of three independent experiments performed in triplicate are shown. *, P=0.004 PDGF and P=0.022 cromolyn+PDGF versus control.\nGrowth of Panc-1 and BxPC3 pancreatic adenocarcinoma cells was analyzed using MTS reagent (Promega, Madison, Wis.) according to the manufacturer's directions. Purified S100P (100 nM final concentration) with or without cromolyn (100 μM final concentration) was added to Panc-1 cells. Only cromolyn (0-100 μM) was added to BxPC-3 cells, which express endogenous S100P. For both cell models, 1.0×10^3 cells/well were plated in 96-well culture dishes. Cells were treated with S100P, PDGF, or cromolyn, or a combination, followed immediately by treatment with either S100P or PDGF. MTS (20 μL per well) was added to cells at various times, and the mixture was incubated for 1 hour at 37° C. Samples were then read at 490 nm (as O.D. units) on a uQuant-Microplate Spectrophotometer (Bio-Tek Services Inc., Richmond, Va.). The assay was performed three times in triplicate."}, "[3]": {"target": "T2, S100P (Homo sapiens, UniProt P25815)", "T2 construct": "full-length human S100P cDNA (NM_005980) was cloned into the pTrcHis2 vector; made in house; host or cells: bacteria (pTrcHis2 vector, IPTG induction)", "T2 sequence (P25815 1-95)": "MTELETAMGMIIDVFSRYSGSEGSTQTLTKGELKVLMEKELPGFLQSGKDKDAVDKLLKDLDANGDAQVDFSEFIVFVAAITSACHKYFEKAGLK", "test": "S100P binding to cromolyn using affinity chromatography", "conditions": "cromolyn coupled to AF-TOYOPEARL; control column did not retain", "protocol": "Cromolyn was coupled with the amino group of AF-amino TOYOPEARL to generate a cromolyn affinity column. A negative control column was prepared by blocking the amino group. Purified S100P was added to both columns, which were then washed extensively. Protein was eluted from the columns using EGTA and subjected to sodium dodecylsulfate polyacrylamide gel electrophoresis and staining with Commassie blue. Lane 1 of the gel is the molecular weight marker; lane 2 is the eluate from the control column; and lane 3 is the eluate from the cromolyn column (arrow, S100P). The gel shown is one of three independent experiments.\nCromolyn was coupled to AF-TOYOPEARL resin as described in Shishibori, et al., Three distinct anti-allergic drugs, amlexanox, cromolyn and tranilast, bind to S100A12 and S100A13 of the S100 protein family; Biochem. J. 1999 Mar. 15;338 (Pt 3):583-9. Briefly, 0.1 grams of cromolyn was dissolved in 1 mL of N,N-dimethylformamide and added to 7 mL (5 grams wet mass) AF-TOYOPEARL. Next, 0.5 grams of N-ethyl-N-(3-dimethylaminopropyl)carbodiimide hydrochloride, suspended in 10 mL of N,N-dimethylformamide, was added to the cromolyn+AF-TOYOPEARL slurry. The pH was adjusted to 5.0, and the slurry was incubated with gentle shaking for 48 hours at 25° C. As a negative control, a column was prepared by blocking the amino group of AF-TOYOPEARL with sodium acetate and acetic anhydride. […]"}, "[4]": {"tested_on": "PC3 prostate cells", "test": "PC3 prostate cell proliferation", "type": "cell-based", "conditions": "different concentrations; 24, 48, 72 hours", "protocol": "PC3 prostate cells were cultured for up to three days in the presence of different concentrations of cromolyn, and cell proliferation was analyzed at 24, 48, and 72 hours. *, P<0.05."}, "[5]": {"tested_on": "SW480 colon cells", "test": "SW480 colon cell proliferation", "type": "cell-based", "conditions": "cromolyn 100 μM, up to three days", "protocol": "SW480 colon cells were cultured for up to three days in the presence of cromolyn (100 μM), and cell proliferation was analyzed. *, P<0.05."}},
  "data": [
    {"smiles": "O=C(O)c1cc(=O)c2c(OCC(O)COc3cccc4oc(C(=O)O)cc(=O)c34)cccc2o1", "note": "[cromolyn, disodium 1,3-bis[(2′-carboxylatochromon-5′-yl)oxy]-2-hydroxypropane]", "values": [
      {"measurement": "interaction of S100B with RAGE", "setting": "[1]", "result": "inhibit"},
      {"measurement": "serum stimulated cell proliferation", "setting": "[2]; Panc-1", "result": "did not influence"},
      {"measurement": "cell proliferation, cromolyn treatment alone", "setting": "[2]; Panc-1, no S100P", "result": "no effect"},
      {"measurement": "PDGF stimulated cell growth", "setting": "[2]; Panc-1, PDGF 10 ng/mL with cromolyn 100 μM, 48 hours", "result": "nor did it inhibit growth stimulation caused by PDGF"},
      {"measurement": "cell proliferation, mean", "setting": "[2]; Panc-1, S100P 100 nM + cromolyn 100 μM", "result": 0.56, "unit": "MTS units"},
      {"measurement": "cell proliferation, difference S100P versus S100P+cromolyn", "setting": "[2]; Panc-1, S100P 100 nM, cromolyn 100 μM", "result": 0.37, "unit": "MTS units"},
      {"measurement": "retention of S100P on cromolyn affinity column", "setting": "[3]", "result": "retained S100P"},
      {"measurement": "growth of PC3 cells", "setting": "[4]", "result": "reduced growth"},
      {"measurement": "growth of SW480 cells", "setting": "[5]", "result": "reduced growth"}
    ]}
  ]
}
